Here are results for four compounds from US20070218086A1, “Adjuvant Composition and Methods for Its Use” (priority 2004, published 2007).

The test system of assay [1] is primary polyclonal human Vγ9/Vδ2 T cells. The experiment in a line: TNFα release assay (cytokine release assay). Type of assay: cell-based. The settings on record: T-cell, 24 h, read-out: in vitro EC50. On the procedure:
Cells (primary polyclonal human Vγ9/Vδ2 T cells which had been expanded in vitro and stored frozen at day 12-15 of expansion) are thawed and rinsed them twice and centrifuged. Upon elimination of supernatant and resuspension of cells, cells are incubated for 24h at 37° C. in the presence of IL2 100 UI/ml (fmal concentration). Cells are washed and centrifuged, following which the supernatant is eliminated and the cells are resuspended and adjusted to the adequate final concentration. Cells are added to the wells of a 96-well plate.
To one row of wells are added a standard diluation series of 3-(bromomethyl)-3-butanol-1-yl-diphosphate (BrHPP). Compounds to be tested, in this case CHDMAPP and HDMAPP are added to experimental wells, after several dilutions.
Full plates are incubated 24 hours at 37° C. for stimulation of the γδ cells with the BrHPP standard as well as isopentenyl pyrophosphate (IPP) for comparison, and test compounds CHDMAPP and HDMAPP. After this time, 100 μl of culture supernatant is taken for TNFα dosage. Measurement of the released TNFa dosageis performed as described by the manufacturer's instruction in the TNFa enzyme immunoassay kit (ref. 11121, Immunotech-Beckman Coulter). OD at 405 nm is read, the OD being proportional to the concentration of released TNFα in the culture supernatant. The data are processed with the Excel software to compare concentration of test compound versus concentration of TNFα and for the calculation of the EC50 for each test compound.

The subject of a further assay is Vγ9/Vδ2+ T cell. The experiment in a line: in vitro Vγ9/Vδ2+ T cell stimulation. Type of assay: cell-based.
For another assay, the system named is γδ T cells. Description: in vivo Vγ9/Vδ2+ T cell stimulation in cynomolgus monkeys.
The subject of assay [2] is IFNγ, TNF-alpha, IL2, IL4, IL5 and IL6. Type of assay: in vivo, monkeys.

As for `CC(O)(CBr)CCOP(=O)(O)OP(=O)(O)O` (stereo not drawn) [BrHPP, 3-(bromomethyl)-3-butanol-1-yl-diphosphate, reference compound], the EC50 in assay [1] was around 18.6 nM.

As to `C/C(=C\COP(=O)(O)OP(=O)(O)O)CO` [HDMAPP, (E)-4-Hydroxy-3-methylbut-2-enyl diphosphate], the EC50 in assay [1] was around 0.758 nM; in the assay with Vγ9/Vδ2+ T cell, around 0.6 nM; with γδ T cells (Macaca fascicularis, T-cell, in cynomolgus monkeys, dosage studies described in co-pending PCT/IB2003/006375), around 0.005 nM. The “activation of γδ T cells” value in the assay with γδ T cells (administration to cynomolgus monkeys, very low doses) is on record as “strong activation of γδ T cells”.

With `C/C(=C\CCP(=O)(O)OP(=O)(O)O)CO` [CHDMAPP, (E)-5-hydroxy-4-methylpent-3-enyl pyrophosphonate], in assay [1], the EC50 is around 0.873 nM. For the same compound, in assay [2] (cytokines known to be induced by phosphoantigen alone (IFNγ)), the “cytokine production (IFNγ) over that observed with the phosphoantigen alone” value is “large increase of cytokine production”. Further, the “cytokine production over that observed with the Hybrid-I formulation alone” value in assay [2] (serum cytokines, 8 monkeys per group, FIG. 3) was “large and statistically significant increase in cytokine production”.

Turning to `C=C(C)CCO[P@@](=O)(O)OP(=O)(O)O` [IPP, isopentenyl pyrophosphate, reference compound], the concentration giving a half-maximal response (EC50) in assay [1] is around 31000 nM.
